Like-named read-outs stand apart in the source and are kept apart here. Square brackets hold non-standard residues; d marks the D form. Ends that are not written are not given here. Peptide text beside a SMILES is read from it. Sar = CNCC(=O)O
Key:
[1] = tested on: Gardnerella; test: Gardnerella growth inhibition; type: cell-based
Procedure: The plates were then incubated at 37° C. overnight and then the plates were read on a spectrophotometer at an absorbance of OD600 nm to determine the turbidity of the solution. Decreased turbidity is indicative of inhibition of bacterial growth.
Complement activation was assayed by measuring the production of C5a using ELISA methodology. […] The associated inflammation causes the symptoms of bacterial vaginosis and increases the risk of HIV-transmission by disrupting normal barrier defenses in the vagina.

[2] = Solubility in water; type: physicochemical
[3] = type: biochemical, human; conditions: 0.77 mM peptide in factor B-depleted serum
Procedure: (§1) Peptides were diluted to 0.77 mM in factor B-depleted human sera (Complement Technologies, Inc.) and incubated for 1 hour at 37° C. These peptides were then diluted with GVBS^++ to equal 2.5% serum, of which 0.25 ml was combined with 0.4 ml of GVBS^++ and 0.1 ml of sensitized sheep red blood cells (RBCs) and again incubated for 1 hour at 37° C. The procedure was stopped by the addition of 4.0 ml of GVBS^−− centrifuged for 5 minutes at 1,620×g, and the absorbance of the supernatants was read at 412 nm in a spectrophotometer. The percent lysis of each sample was standardized to that of the serum only control.
(§2) The final concentration of peptide in factor B-depleted serum was 0.77 mM. Each peptide was evaluated in triplicate and the mean values are reported. […] In the hemolytic assay, soluble peptides are standardized to water and insoluble peptides standardized to DMSO.
(§3) Polar Assortant peptides were serially diluted in undiluted factor B-depleted human sera (Complement Technologies, Inc.) and incubated for 1 hour at 37° C. Water, GVBS^++ and DMSO were included as controls. These peptides were then diluted with GVBS^++ to equal 2.5% serum, of which 0.25 ml was combined with 0.4 ml of GVBS^++ and 0.1 ml of sensitized sheep red blood cells (RBCs) and again incubated for 1 hour at 37° C. The procedure was stopped by the addition of 4.0 ml of GVBS^−−, centrifuged for 5 minutes at 1,620×g, and the absorbance of the supernatants was read at 412 nm in a spectrophotometer. The percent lysis of each sample was standardized to that of the serum only control.
(§4) The final concentration of peptide in factor B-depleted serum was 0.77 mM. […] In the hemolytic assay, soluble peptides were standardized to water and insoluble peptides standardized to DMSO.
(§5) The final concentration of peptide in factor B-depleted serum was 0.77 mM. […] In the hemolytic assay, soluble peptides are standardized to water and insoluble peptides standardized to DMSO.

[4] = tested on: complement activation in factor B-depleted human sera; type: biochemical; conditions: factor B-depleted serum
Procedure: as §1, §2, §3, §4, §5

[5] = standardized to water or DMSO, Table 6

For `CC[C@H](C)[C@H](N)C(=O)N[C@@H](C)C(=O)N[C@@H](CC(C)C)C(=O)N(C)CC(=O)N[C@@H](CC(C)C)C(=O)N[C@@H](CCC(=O)O)C(=O)N1CCC[C@H]1C(=O)N[C@H](C(=O)N[C@@H](CS)C(=O)N[C@@H](CS)C(=O)N[C@@H](CCC(N)=O)C(=O)N[C@@H](CCC(=O)O)C(=O)N[C@@H](CCCNC(=N)N)C(=O)N[C@@H](C)C(=O)N[C@@H](C)C(=O)O)[C@@H](C)CC` [PA-I4Sar] (H-IAL[Sar]LEPICCQERAA-OH), the “Inhibition of Gardnerella growth” value [1] was “inhibited the growth”.
For `CC[C@H](C)[C@H](N)C(=O)N[C@@H](C)C(=O)N(C)CC(=O)N[C@H](C(=O)N[C@@H](CC(C)C)C(=O)N[C@@H](CCC(=O)O)C(=O)N1CCC[C@H]1C(=O)N[C@H](C(=O)N[C@@H](CS)C(=O)N[C@@H](CS)C(=O)N[C@@H](CCC(N)=O)C(=O)N[C@@H](CCC(=O)O)C(=O)N[C@@H](CCCNC(=N)N)C(=O)N[C@@H](C)C(=O)N[C@@H](C)C(=O)O)[C@@H](C)CC)[C@@H](C)CC` [PA-L3Sar] (H-IA[Sar]ILEPICCQERAA-OH), the “Inhibition of Gardnerella growth” value [1] was “inhibited the growth”.
With `CC[C@H](C)[C@H](N)C(=O)N[C@@H](C)C(=O)N[C@@H](CC(C)C)C(=O)N[C@H](C(=O)N(C)CC(=O)N[C@@H](CCC(=O)O)C(=O)N1CCC[C@H]1C(=O)N[C@H](C(=O)N[C@@H](CS)C(=O)N[C@@H](CS)C(=O)N[C@@H](CCC(N)=O)C(=O)N[C@@H](CCC(=O)O)C(=O)N[C@@H](CCCNC(=N)N)C(=O)N[C@@H](C)C(=O)N[C@@H](C)C(=O)O)[C@@H](C)CC)[C@@H](C)CC` [PA-L5Sar] (H-IALI[Sar]EPICCQERAA-OH) the “Inhibition of Gardnerella growth” value [1] was “inhibited the growth”.
In the case of `CC[C@H](C)[C@H](NC(=O)[C@H](CC(C)C)NC(=O)[C@H](C)N)C(=O)N[C@@H](CC(C)C)C(=O)N[C@@H](CCC(=O)O)C(=O)N1CCC[C@H]1C(=O)N[C@H](C(=O)N[C@@H](CS)C(=O)N[C@@H](CS)C(=O)N(C)CC(=O)N[C@@H](CCC(=O)O)C(=O)N[C@@H](CCCNC(=N)N)C(=O)N[C@@H](C)C(=O)N[C@@H](C)C(=O)O)[C@@H](C)CC` [PA-Q11Sar] (H-ALILEPICC[Sar]ERAA-OH; N-terminus and C-terminus assumed), the Solubility in water ([2]; Table 5, sarcosine substitution peptides) is reported as “No” and the hemolysis ([3]; human, mean of triplicate, standardized to water (soluble) or DMSO (insoluble)) is reported as 3.02%.
`CC[C@H](C)[C@H](N)C(=O)N[C@@H](C)C(=O)N[C@@H](CC(C)C)C(=O)N[C@H](C(=O)N[C@@H](CC(C)C)C(=O)N[C@@H](CCC(=O)O)C(=O)N1CCC[C@H]1C(=O)N[C@H](C(=O)N[C@@H](CS)C(=O)N[C@@H](CS)C(=O)N[C@@H](CCC(N)=O)C(=O)N[C@@H](CCC(=O)O)C(=O)N[C@@H](CCCNC(=N)N)C(=O)N[C@@H](C)C(=O)N[C@@H](C)C(=O)NCCOCCOCCC(=O)O)[C@@H](C)CC)[C@@H](C)CC` [PA-dPEG02] showed a hemolysis [3, 5] of 11.6%.
With `CC[C@H](C)[C@H](N)C(=O)N[C@@H](C)C(=O)N[C@@H](CC(C)C)C(=O)N[C@H](C(=O)N[C@@H](CC(C)C)C(=O)N[C@@H](CCC(=O)O)C(=O)N1CCC[C@H]1C(=O)N[C@H](C(=O)N[C@@H](CS)C(=O)N[C@@H](CS)C(=O)N[C@@H](CCC(N)=O)C(=O)N[C@@H](CCC(=O)O)C(=O)N[C@@H](CCCNC(=N)N)C(=O)N[C@@H](C)C(=O)N[C@@H](C)C(=O)NCCOCCOCCOCCC(=O)O)[C@@H](C)CC)[C@@H](C)CC` [PA-dPEG03] the hemolysis [3, 5] was 12.6%.
In the case of `CC[C@H](C)[C@H](N)C(=O)N[C@@H](C)C(=O)N[C@@H](CC(C)C)C(=O)N[C@H](C(=O)N[C@@H](CC(C)C)C(=O)N[C@@H](CCC(=O)O)C(=O)N1CCC[C@H]1C(=O)N[C@H](C(=O)N[C@@H](CS)C(=O)N[C@@H](CS)C(=O)N[C@@H](CCC(N)=O)C(=O)N[C@@H](CCC(=O)O)C(=O)N[C@@H](CCCNC(=N)N)C(=O)N[C@@H](C)C(=O)N[C@@H](C)C(=O)NCCOCCOCCOCCOCCC(=O)O)[C@@H](C)CC)[C@@H](C)CC` [PA-dPEG04], the hemolysis [3, 5] is reported as 12.4%.
For `CC[C@H](C)[C@H](N)C(=O)N[C@@H](C)C(=O)N[C@@H](CC(C)C)C(=O)N[C@H](C(=O)N[C@@H](CC(C)C)C(=O)N[C@@H](CCC(=O)O)C(=O)N1CCC[C@H]1C(=O)N[C@H](C(=O)N[C@@H](CS)C(=O)N[C@@H](CS)C(=O)N[C@@H](CCC(N)=O)C(=O)N[C@@H](CCC(=O)O)C(=O)N[C@@H](CCCNC(=N)N)C(=O)N[C@@H](C)C(=O)N[C@@H](C)C(=O)NCCOCCOCCOCCOCCOCCOCCC(=O)O)[C@@H](C)CC)[C@@H](C)CC` [PA-dPEG06], the hemolysis [3, 5] was 44.8%.
`CC[C@H](C)[C@H](N)C(=O)N[C@@H](C)C(=O)N[C@@H](CC(C)C)C(=O)N[C@H](C(=O)N[C@@H](CC(C)C)C(=O)N[C@@H](CCC(=O)O)C(=O)N1CCC[C@H]1C(=O)N[C@H](C(=O)N[C@@H](CS)C(=O)N[C@@H](CS)C(=O)N[C@@H](CCC(N)=O)C(=O)N[C@@H](CCC(=O)O)C(=O)N[C@@H](CCCNC(=N)N)C(=O)N[C@@H](C)C(=O)N[C@@H](C)C(=O)NCCOCCOCCOCCOCCOCCOCCOCCOCCC(=O)O)[C@@H](C)CC)[C@@H](C)CC` [PA-dPEG08] showed a hemolysis [3, 5] of 34.7%.
In the case of `CC[C@H](C)[C@H](N)C(=O)N[C@@H](C)C(=O)N[C@@H](CC(C)C)C(=O)N[C@H](C(=O)N[C@@H](CC(C)C)C(=O)N[C@@H](CCC(=O)O)C(=O)N1CCC[C@H]1C(=O)N[C@H](C(=O)N[C@@H](CS)C(=O)N[C@@H](CS)C(=O)N[C@@H](CCC(N)=O)C(=O)N[C@@H](CCC(=O)O)C(=O)N[C@@H](CCCNC(=N)N)C(=O)N[C@@H](C)C(=O)N[C@@H](C)C(=O)NCCOCCOCCOCCOCCOCCOCCOCCOCCOCCOCCOCCOCCC(=O)O)[C@@H](C)CC)[C@@H](C)CC` [PA-dPEG12], the hemolysis [3, 5] is reported as 11.4%.
In the case of `CC[C@H](C)[C@H](N)C(=O)N[C@@H](C)C(=O)N[C@@H](CC(C)C)C(=O)N[C@H](C(=O)N[C@@H](CC(C)C)C(=O)N[C@@H](CCC(=O)O)C(=O)N1CCC[C@H]1C(=O)N[C@H](C(=O)N[C@@H](CS)C(=O)N[C@@H](CS)C(=O)N[C@@H](CCC(N)=O)C(=O)N[C@@H](CCC(=O)O)C(=O)N[C@@H](CCCNC(=N)N)C(=O)N[C@@H](C)C(=O)N[C@@H](C)C(=O)NCCOCCOCCOCCOCCOCCOCCOCCOCCOCCOCCOCCOCCOCCOCCOCCOCCC(=O)O)[C@@H](C)CC)[C@@H](C)CC` [PA-dPEG16], the hemolysis [3, 5] is reported as 12%.
With `CC[C@H](C)[C@H](N)C(=O)N[C@@H](C)C(=O)N[C@@H](CC(C)C)C(=O)N[C@H](C(=O)N[C@@H](CC(C)C)C(=O)N[C@@H](CCC(=O)O)C(=O)N1CCC[C@H]1C(=O)N[C@H](C(=O)N[C@@H](CS)C(=O)N[C@@H](CS)C(=O)N[C@@H](CCC(N)=O)C(=O)N[C@@H](CCC(=O)O)C(=O)N[C@@H](CCCNC(=N)N)C(=O)N[C@@H](C)C(=O)N[C@@H](C)C(=O)NCCOCCOCCOCCOCCOCCOCCOCCOCCOCCOCCOCCOCCOCCOCCOCCOCCOCCOCCOCCOCCC(=O)O)[C@@H](C)CC)[C@@H](C)CC` [PA-dPEG20] the hemolysis [3, 5] was 11.4%.
`CC[C@H](C)[C@H](N)C(=O)N[C@@H](C)C(=O)N[C@@H](CC(C)C)C(=O)N[C@H](C(=O)N[C@@H](CC(C)C)C(=O)N[C@@H](CCC(=O)O)C(=O)N1CCC[C@H]1C(=O)N[C@H](C(=O)N[C@@H](CS)C(=O)N[C@@H](CS)C(=O)N[C@@H](CCC(N)=O)C(=O)N[C@@H](CCC(=O)O)C(=O)N[C@@H](CCCNC(=N)N)C(=O)N[C@@H](C)C(=O)N[C@@H](C)C(=O)O)[C@@H](C)CC)[C@@H](C)CC` [PA] gave a hemolysis ([3]; mean of triplicate, standardized to water (soluble) or DMSO (insoluble)) of 3.15%.
In the case of `CC[C@H](C)[C@H](N)C(=O)N[C@@H](C)C(=O)N[C@@H](CC(C)C)C(=O)N[C@H](C(=O)N[C@@H](CC(C)C)C(=O)N[C@@H](CCC(=O)O)C(=O)N(C)CC(=O)N[C@H](C(=O)N[C@@H](CS)C(=O)N[C@@H](CS)C(=O)N[C@@H](CCC(N)=O)C(=O)N[C@@H](CCC(=O)O)C(=O)N(C)CC(=O)N[C@@H](C)C(=O)N[C@@H](C)C(=O)O)[C@@H](C)CC)[C@@H](C)CC` [Peptide R13SarP7Sar, IALILE(Sar)ICCQE(Sar)AA] (H-IALILE[Sar]ICCQE[Sar]AA-OH), the Solubility in water ([2]; Table 7, PEGylated and Sar/Ala substitution peptides) is reported as “No”.
In the case of “dPEG24-IALILEPICCQERAA (cysteine pairing not given here) [dPEG24-PA]”, the “Complement inhibition in hemolytic assay” value [4] is reported as “varying degrees of complement inhibition”.
With “dPEG24-IALILEPICCQERAA-dPEG24 (cysteine pairing not given here) [dPEG24-PA-dPEG24]” the “Complement inhibition in hemolytic assay” value [4] was “varying degrees of complement inhibition”.
